# Reference: PMC5382161 (Frontiers in Microbiology, 2017)
# Where two headings read alike, the source gives them in different places.
# Key:
# [1] = system: Mycobacterium smegmatis mc^2 155; experiment: microbe, parasite or virus in culture; type: cell-based
# [2] = system: M. smegmatis mc^2 155; experiment: Bacterial cell length by bright field microscopy; type: cell-based, Mycobacterium smegmatis
# [3] = molecular target: T1, MtbFtsZ (Mycobacterium tuberculosis, UniProt P9WN95); type: biochemical
# T1 construct: inferred from pET15 vector and Ni-NTA purification; made in house; host or cells: E. coli BL21 (DE3) Rosetta
# T1 sequence (P9WN95 1-379): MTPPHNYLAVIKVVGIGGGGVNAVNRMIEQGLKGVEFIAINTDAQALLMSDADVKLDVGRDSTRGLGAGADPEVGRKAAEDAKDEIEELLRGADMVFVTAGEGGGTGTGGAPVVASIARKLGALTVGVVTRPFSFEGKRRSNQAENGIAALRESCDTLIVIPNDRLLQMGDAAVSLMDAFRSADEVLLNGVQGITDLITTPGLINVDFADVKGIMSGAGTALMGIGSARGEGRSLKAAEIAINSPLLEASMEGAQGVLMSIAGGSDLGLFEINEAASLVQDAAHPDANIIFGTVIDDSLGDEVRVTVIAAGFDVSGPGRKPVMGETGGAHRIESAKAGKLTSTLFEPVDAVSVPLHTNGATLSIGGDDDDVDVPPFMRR
# [4] = system: Mycobacterium tuberculosis H37Rv; parameters: method as in Rezayan et al., 2012; Upadhyay et al., 2012; details: ref Rezayan et al., 2012, Upadhyay et al.; cited from earlier work
# [5] = system: FtsZ localization in M. smegmatis mc^2 155; experiment: FtsZ localization by immunofluorescence microscopy; type: cell-based, Mycobacterium smegmatis; details: late logarithmic phase cells grown with compound for 4 h
# Procedure: The effect of coumarins on the Z-ring formation of M. smegmatis was determined with immunofluoresence microscopy using anti-FtsZ antibodies (Dziedzic et al., [2010]). Late logarithmic phase cells were grown in the presence and absence of coumarins for 4 h. The cells were fixed with formaldehyde washed with phosphate buffer, and immuno-stained with polyclonal anti-FtsZ rabbit antibody (GeneTeX, USA) overnight at 4°C. Alexa fluor (488) goat anti-rabbit secondary antibody (Invitrogen, USA) was used for visualizing Z-rings. The nuclear material was visualized by using an anti-mountant containing DAPI. The cells were visualized in 63 X objective using a Carl-Zeiss fluorescence Microscope (Axio Imager 2 for Life Science Research, Germany). The images were visualized and processed using ZEN image processing software.
# [6] = molecular target: T2, MtbFtsZ wild type (Mycobacterium tuberculosis, UniProt P9WN95); type: biochemical
# T2 construct: inferred from pET15 vector and Ni-NTA purification; made in house; host or cells: E. coli BL21 (DE3) Rosetta
# T2 sequence (P9WN95 1-379): T1 sequence (P9WN95 1-379)
# [7] = molecular target: T2, MtbFtsZ wild type; type: biochemical; remark: listed apart in the source
# [8] = system: bacteria; parameters: method as in Jaiswal et al., 2007; Bhattacharya et al., 2013; details: ref Jaiswal et al., 2007; Bhattacharya et al., 2013; cited from earlier work
# [9] = Mycolicibacterium smegmatis, MC^2155, 48 h, M. smegmatis mc^2 155, MABA, 37°C, 48 h, read-out: MIC
# [10] = Mycolicibacterium smegmatis, MC^2155, 48 h
# [11] = M. smegmatis mc^2 155, MABA, 37°C, 48 h
smiles,measurement,setting,value
"CO[C@H]1/C=C/O[C@@]2(C)Oc3c(C)c(O)c4c(O)c(c(/C=N/N5CCN(C)CC5)c(O)c4c3C2=O)NC(=O)/C(C)=C\C=C\[C@H](C)[C@H](O)[C@@H](C)[C@@H](O)[C@@H](C)[C@H](OC(C)=O)[C@@H]1C [Rifampicin, reference compound]",MIC,[1]; [9],3.9 µM
O=c1ccc2cc(O)c(O)cc2o1 [Esculetin],MIC,[1]; [10],48.2 ± 5.7 µM
same,increase of bacterial length,[2],4 fold
same,maximum bacterial length,[2],17.85 ± 4.5 μm
same,protofilament formation (TEM),[3],did not allow the formation of network for a protofilament
Cc1cc(=O)oc2cc(O)ccc12 [4-Methylumbelliferone],MIC,[1]; [9],42.5 ± 2.4 µM
CCN(CC)c1ccc2c(C)cc(=O)oc2c1 [7-Diethylamino-4-methylcoumarin],MIC,[1]; [10],70.2 ± 6.2 µM
"COc1cc2ccc(=O)oc2cc1O [scopoletin, reference compound]",MIC,[4],42 µg/mL
O=c1oc2c(O)c(O)cc3c(=O)oc4c(O)c(O)cc1c4c23 [Ellagic acid],MIC,[1]; [11],50 ± 2.4 µM
same,MIC,"[1]; M. smegmatis mc^2 155, MABA, 37°C, 48 h, listed as ellagic acid, read-out: MIC",50 µM
same,MIC,[1]; [9],25 µM
O=c1ccc2ccc(O)cc2o1 [Umbelliferone],MIC,[1]; [10],46.2 ± 3.2 µM
same,MIC,[4],58.3 µg/mL
Cc1cc(=O)oc2cc(N(C)C)ccc12 [7-Dimethyl-4-methylcoumarin],MIC,[1]; [11],36.8 ± 7.1 µM
same,MIC,"[1]; M. smegmatis mc^2 155, MABA, 37°C, 48 h, listed as 7-Dimethyl-4-methyl coumarin, read-out: MIC",36.8 µM
same,MIC,[1]; [9],38.7 µM
same,increase of bacterial length,"[2]; cells treated with 50 μM, versus untreated cells",4 fold
same,maximum bacterial length,"[2]; cells treated with 50 μM, untreated 4.48 ± 1.25 μm",15.2 ± 3.5 μm
same,protofilament formation (TEM),[3],did not allow the formation of network for a protofilament
same,FtsZ localization (immunofluorescence),[5],localization of MtbFtsZ was disrupted
O=c1cc(O)c2ccccc2o1 [4-Hydroxycoumarin],MIC,[1]; [9],150 ± 7.4 µM
CC(C)c1c(O)ccc2c1CC[C@H]1C(C)(C)CCC[C@]21C [Totarol],inhibition of the polymerization activity of the protein,[6],74% ± 2
same,inhibition of the GTPase activity of the protein,[7],68% ± 3.1
same,increase of the length of bacteria,[8],5 fold
Cc1ccc2oc(=O)ccc2c1 [6-Methylcoumarin],MIC,[1]; [9],46.8 ± 4.3 µM
CC1=CC(=O)c2c(O)cccc2C1=O [Plumbagin],increase of the length of bacteria,[8],7 fold
O=c1ccc2ccccc2o1 [Coumarin],MIC,[1]; [9],214 ± 8.7 µM
"[H]/N=C(/N)N[C@H]1[C@H](O)[C@@H](O)[C@H](O[C@@H]2O[C@@H](C)[C@](O)(C=O)[C@H]2O[C@@H]2O[C@@H](CO)[C@H](O)[C@@H](O)[C@@H]2NC)[C@@H](N/C(N)=N\[H])[C@@H]1O [streptomycin, reference compound]",MIC,[1]; [9],11.2 µM
O=c1ccc2ccc(O)c(O)c2o1 [Daphnetin],MIC,[1]; [10],48.2 ± 6.3 µM
COc1ccc2cc3[n+](cc2c1OC)CCc1cc2c(cc1-3)OCO2 [Berberine],inhibition of the polymerization activity of the protein,[6],82% ± 1.4
same,inhibition of the GTPase activity of the protein,[7],75% ± 2.5
